Patent US6946458B2, “N-thiolated beta-lactams: novel antibacterial agents for methicillin-resistant Staphylococcus aureus” (University of South Florida, priority 1999, dated 2005)

Assays:
S. simulans (ATCC 11631) = experiment: Kirby-Bauer agar disk diffusion; type: cell-based, Staphylococcus simulans; details: 6-mm disks, 20 μg test compound
Experimental: (§1) In this study, a selection of N-methylthio-substituted β-lactams are examined for antimicrobial activity by the Kirby-Bauer disk diffusion method on agar plates. A variety of common Gram-positive and Gram-negative bacteria are tested, including clinical isolates of methicillin-resistant Staphylococcus aureus (MRSA).
(§2) Compound susceptibility measurements are obtained from agar disk diffusion experiments using 6-mm air-dried disks impregnated with 20 μg of the test compound. The values correspond to the average diameters in mm (triplicate experiments) for the zone of growth inhibition observed after 24 h. Staphylococcus aureus (ATCC 25923) and β-lactamase-producing strains of methicillin-resistant Staphylococcus aureus (labeled as MRSA USF652-659) are obtained from Lakeland Regional Medical Center, Lakeland, Fla. Staphylococcus epidermidis, Staphylococcus simulans, Staphylococcus simulans, and Microcossus luteus are clinical isolates from University of South Florida Medical Clinic. Nieserria gonnorhoeae (β-lactamase positive) is obtained from the Tampa Branch State Laboratory. PenG is penicillin G (potassium salt). Table 1 provides the zones of growth inhibition that are observed after 24 hours using the lactams of FIGS. 1A-1I (designated A-I, respectively).
(§3) Of particular interest is the ability of these compounds to retain their effectiveness against penicillin-resistant strains of Staphylococcus aureus, a dangerous hospital-borne pathogen which is becoming difficult to treat with conventional antibiotic therapy. The lactams were screened for antibacterial activity by disk diffusion on agar plates, and the resulting zones of bacterial growth inhibition measured (see Table 3; each lactam is designated by Figure number).
(§4) Table 3: Growth inhibition zones obtained from agar disk diffusion experiments using 6-mm air-dried disks impregnated with 20 μg of the test compound. The values correspond to the average diameters in mm for the zone of growth inhibition observed after 24 hours. Staphylococcus aureus and β-lactamase-producing strains of methicillin-resistant Staphylococcus aureus (labeled MRSA USF652-659) are obtained from a clinical testing laboratory at Lakeland Regional Medical Center, Lakeland, Fla.

[1] = test system: Staphylococcus strains including MRSA; experiment: antibacterial activity screening, results stated in words; type: cell-based, Staphylococcus aureus; details: Example 2; all microorganisms tested
Text: However, the N-alkylthio substituent is required, since reduction to the N—H analogue completely destroys the biological activity. […]
as §3
With the lactam of FIG. 6A serving as a lead structure, other C4-unsaturated derivatives (FIGS. 6B-6E) and C4-saturated analogues (FIGS. 6F-6H), were examined all of which also have activity against Staphylococcus strains including MRSA.
(§5) Scheme I summarizes the synthesis of ester compounds 4. 4-Carboxy benzaldehyde (1) is coupled with the appropriate alcohol using DCC/DMAP, followed by reaction with p-anisidine, to give imines 2. Staudinger coupling of methoxyacetyl chloride with imine 2 gives N-aryl protected β-lactam 3. N-Dearylation of β-lactam 3 with ceric ammonium nitrate and methylthiolation with N-(methylthio)phthalimide affords N-methylthio β-lactams 4. These compounds are tested for antibacterial activity by the Kirby-Bauer method of disc diffusion on agar plates. [drawing 7]

[2] = test system: S. saprophyticus (ATCC 3552); experiment: Kirby-Bauer agar disk diffusion; type: cell-based, Staphylococcus saprophyticus; details: 6-mm disks, 20 μg test compound
Experimental: as §1, §2, §3, §4

[3] = test system: Staphylococcus epidermidis; experiment: Kirby-Bauer agar disk diffusion; type: cell-based; details: 6-mm disks, 20 μg test compound
Experimental: as §1, §2, §3, §4

[4] = test system: Staphylococcus aureus (ATCC 25923); experiment: Kirby-Bauer agar disk diffusion; type: cell-based; details: 6-mm disks, 20 μg test compound
Experimental: as §1, §2, §3, §4

Micrococcus luteus = experiment: Kirby-Bauer agar disk diffusion; type: cell-based; details: 6-mm disks, 20 μg test compound
Experimental: as §1, §2, §3, §4

MRSA USF658 = experiment: Kirby-Bauer agar disk diffusion; type: cell-based, Staphylococcus aureus; details: 6-mm disks, 20 μg test compound
Experimental: as §1, §2, §3, §4
(§6) Those compounds were tested for bioactivity using the Kirby-Bauer test on agar plates.
(§7) Biological activity is enhanced against β-lactamase producing strains of methicillin-resistant Staphylococcus aureus (MRSA). With the lactam shown in FIG. 11A serving as a lead structure, a series of other C-4 substituted derivatives (FIGS. 11B-11I) were investigated herein. Table 5 lists microbiological data for β-lactams from Kirby-Bauer Disc Diffusion Test Results (with each lactam identified by Figure number).
as §5

MRSA USF657 = experiment: Kirby-Bauer agar disk diffusion; type: cell-based, Staphylococcus aureus; details: 6-mm disks, 20 μg test compound
Experimental: as §1, §2, §3, §4, §6, §7, §5

MRSA USF656 = experiment: Kirby-Bauer agar disk diffusion; type: cell-based, Staphylococcus aureus; details: 6-mm disks, 20 μg test compound
Experimental: as §1, §2, §3, §4, §6, §7, §5

MRSA USF653 = experiment: Kirby-Bauer agar disk diffusion; type: cell-based, Staphylococcus aureus; details: 6-mm disks, 20 μg test compound
Experimental: as §1, §2, §3, §4, §6, §7, §5

MRSA USF654 = experiment: Kirby-Bauer agar disk diffusion; type: cell-based, Staphylococcus aureus; details: 6-mm disks, 20 μg test compound
Experimental: as §1, §2, §3, §4, §6, §7, §5

MRSA USF655 = experiment: Kirby-Bauer agar disk diffusion; type: cell-based, Staphylococcus aureus; details: 6-mm disks, 20 μg test compound
Experimental: as §1, §2, §3, §4, §6, §7, §5

MRSA USF659 = experiment: Kirby-Bauer agar disk diffusion; type: cell-based, Staphylococcus aureus; details: 6-mm disks, 20 μg test compound
Experimental: as §1, §2, §3, §4, §6, §7, §5

MRSA USF652 = experiment: Kirby-Bauer agar disk diffusion; type: cell-based, Staphylococcus aureus; details: 6-mm disks, 20 μg test compound
Experimental: as §1, §2, §3, §4, §6, §7, §5

N. gonorrhoeae = experiment: Kirby-Bauer agar disk diffusion; type: cell-based, Neisseria gonorrhoeae; details: Table 1; 6-mm disks, 20 μg test compound, 24 h, triplicate; β-lactamase positive
Experimental: as §1, §2

| SMILES | zone of growth inhibition, average diameter (S. simulans (ATCC 11631); Table 1, 24 h, triplicate) [mm] | zone of growth inhibition, average diameter (N. gonorrhoeae) [mm] | zone of growth inhibition, average diameter ([2]; Table 1, 24 h, triplicate) [mm] | zone of growth inhibition, average diameter ([3]; Table 1, 24 h, triplicate) [mm] | zone of growth inhibition, average diameter ([4]; Table 1, 24 h, triplicate) [mm] | zone of growth inhibition, average diameter (Micrococcus luteus; Table 1, 24 h, triplicate) [mm] | zone of growth inhibition, average diameter (MRSA USF658; Table 1, 24 h, triplicate) [mm] | zone of growth inhibition, average diameter (MRSA USF657; Table 1, 24 h, triplicate) [mm] | zone of growth inhibition, average diameter (MRSA USF656; Table 1, 24 h, triplicate) [mm] | zone of growth inhibition, average diameter (MRSA USF653; Table 1, 24 h, triplicate) [mm] | zone of growth inhibition, average diameter (MRSA USF654; Table 1, 24 h, triplicate) [mm] | zone of growth inhibition, average diameter (MRSA USF655; Table 1, 24 h, triplicate) [mm] | zone of growth inhibition, average diameter (MRSA USF659; Table 1, 24 h, triplicate) [mm] | zone of growth inhibition, average diameter (MRSA USF652; Table 1, 24 h, triplicate) [mm] | further results |
| --- | --- | --- | --- | --- | --- | --- | --- | --- | --- | --- | --- | --- | --- | --- | --- |
| COC1C(=O)N(SC)C1C(C#Cc1ccccc1)OC(C)=O (mixture of isomers) [FIG. 3H] | – | – | – | – | – | – | – | – | – | – | – | – | – | – | zone of growth inhibition, average diameter (S. simulans (ATCC 11631); Table 3, 24 hours): 0 mm; antimicrobial activity, in words [1]: inactive; zone of growth inhibition, average diameter ([2]; Table 3, 24 hours): 0 mm; zone of growth inhibition, average diameter ([3]; Table 3, 24 hours): 0 mm; zone of growth inhibition, average diameter ([4]; Table 3, 24 hours): 0 mm; zone of growth inhibition, average diameter (Micrococcus luteus; Table 3, 24 hours): 0 mm; zone of growth inhibition, average diameter (MRSA USF658; Table 3, 24 hours): 0 mm; zone of growth inhibition, average diameter (MRSA USF657; Table 3, 24 hours): 0 mm; zone of growth inhibition, average diameter (MRSA USF656; Table 3, 24 hours): 0 mm; zone of growth inhibition, average diameter (MRSA USF653; Table 3, 24 hours): 0 mm; zone of growth inhibition, average diameter (MRSA USF654; Table 3, 24 hours): 0 mm; zone of growth inhibition, average diameter (MRSA USF655; Table 3, 24 hours): 0 mm; zone of growth inhibition, average diameter (MRSA USF659; Table 3, 24 hours): 0 mm; zone of growth inhibition, average diameter (MRSA USF652; Table 3, 24 hours): 0 mm |
| COC1C(=O)N(SC)C1c1cccs1 (racemic) [Lactam I] | 0 | 11 | 20 | 28 | 27 | 15 | 26 | 26 | 28 | 28 | 27 | 29 | 24 | 28 | – |
| COC1C(=O)N(SC)C1c1cccc([N+](=O)[O-])c1 (racemic) [Lactam E] | 13 | 12 | 15 | 20 | 15 | 22 | 17 | 18 | 18 | 22 | 16 | 14 | 11 | 17 | – |
| COC1C(=O)N(SC)C1C#Cc1ccccc1 (racemic) [Lactam A] | 21 | 13 | 22 | 30 | 27 | 23 | 27 | 30 | 30 | 30 | 28 | 29 | 25 | 31 | – |
| COC1C(=O)N(SC)C1c1ccccc1 (racemic) [Lactam C] | 14 | 14 | 22 | 31 | 25 | 21 | 26 | 27 | 28 | 30 | 26 | 25 | 24 | 30 | – |
| COC1C(=O)N(SC)C1C=Cc1ccccc1 (racemic) [Lactam B] | 11 | 11 | 12 | 23 | 18 | 20 | 16 | 17 | 19 | 23 | 16 | 17 | 15 | 19 | – |
| COC1C(=O)N(SC)C1c1ccc(C#N)cc1 (racemic) [Lactam G] | 0 | 12 | 14 | 20 | 14 | 21 | 12 | 10 | 13 | 16 | 12 | 12 | 12 | 14 | – |
| COC1C(=O)N(SC)C1c1ccccc1C (racemic) [Lactam H] | 14 | 12 | 15 | 25 | 23 | 21 | 22 | 23 | 25 | 27 | 23 | 23 | 20 | 23 | – |
| COC1C(=O)N2SC(c3ccccc3)=C(I)C12 (stereo not drawn) [FIG. 2D] | – | – | – | – | – | – | – | – | – | – | – | – | – | – | zone of growth inhibition, average diameter (S. simulans (ATCC 11631); Table 3, 24 hours): 0 mm; antimicrobial activity, in words [1]: no antimicrobial activity; zone of growth inhibition, average diameter ([2]; Table 3, 24 hours): 0 mm; zone of growth inhibition, average diameter ([3]; Table 3, 24 hours): 0 mm; zone of growth inhibition, average diameter ([4]; Table 3, 24 hours): 0 mm; zone of growth inhibition, average diameter (Micrococcus luteus; Table 3, 24 hours): 0 mm; zone of growth inhibition, average diameter (MRSA USF658; Table 3, 24 hours): 0 mm; zone of growth inhibition, average diameter (MRSA USF657; Table 3, 24 hours): 0 mm; zone of growth inhibition, average diameter (MRSA USF656; Table 3, 24 hours): 0 mm; zone of growth inhibition, average diameter (MRSA USF653; Table 3, 24 hours): 0 mm; zone of growth inhibition, average diameter (MRSA USF654; Table 3, 24 hours): 0 mm; zone of growth inhibition, average diameter (MRSA USF655; Table 3, 24 hours): 0 mm; zone of growth inhibition, average diameter (MRSA USF659; Table 3, 24 hours): 0 mm; zone of growth inhibition, average diameter (MRSA USF652; Table 3, 24 hours): 0 mm |
